{"source": "paper PMC4264242", "about": "“Androgen Receptor Antagonists and Anti-Prostate Cancer Activities of Some Newly Synthesized Substituted Fused Pyrazolo-, Triazolo- and Thiazolo-Pyrimidine Derivatives” (International Journal of Molecular Sciences, 2014)", "tested_on": "castrated immature rats", "assay": "In vivo anti-androgenic activity in castrated immature rats treated with testosterone propionate", "set-up": "species or system rat", "text": "[…] male Wistar rats were obtained from the Animal House Colony, Research Institute of Ophthalmology, Giza, Egypt. Prepubertal male rats aged 3 weeks were castrated using the scrotal route under ether anesthesia."}
{"smiles": "CC(O)(CS(=O)(=O)c1ccc(F)cc1)C(=O)Nc1ccc(C#N)c(C(F)(F)F)c1", "note": "(centres unmarked) [Bicalutamide, reference compound]", "values": [{"measurement": "ED50", "setting": "Rattus norvegicus, castrated immature rats, TP 0.5 mg/kg s.c., compound p.o., read-out: ED50, in vivo anti-androgen activity", "result": 1.6, "unit": "mg/kg"}, {"measurement": "% (Inhibition), in vivo anti-androgen activity", "setting": "inhibition of TP effect (TP 0.5 mg/kg s.c. once daily for 5 days), tested compound 10-30 mg/kg p.o.", "result": 75, "unit": "%"}]}
